Test results reported in patent publication US10030012B2, “Piperidin-1-yl and azepin-1-yl carboxylates as muscarinic M4 receptor agonists” (Heptares Therapeutics Limited, priority 2013, dated 2018).

Key:
human M4 receptor = human M4 receptor (Homo sapiens (Human), UniProt P08173); test: In vitro M4 functional assay (intracellular calcium, FLiPR Tetra); format: cell-based; conditions: for EC50: CHOK1 cells stably expressing human M4 receptor and Gα16, calcium flux; for Emax: relative efficacy to an EC100 concentration of acetylcholine, read-out: M4 % RE
Method: (§1) In Vitro M4 &M2 Functional Assay
(§2) The functional activity of compounds at the M4 and M2 receptors was determined by measuring changes in the level of intracellular calcium ions caused by signalling cascades mediated by the receptor. Intracellular Calcium levels were measured using a calcium sensitive fluorescent dye, calcium 5 (Molecular Devices) The changes in fluorescence were monitored by a fluorescent imager, FLiPR Tetra (Molecular devices). Increases in intracellular calcium were readily detected upon activation of both receptors by the muscarinic receptor agonist Acetylcholine.
(§3) CHOK1 cells stably expressing human M4 or M2 receptor and co-expressing the accessory g-protein Gα16 were routinely grown as monolayers in Hams-F12 medium (Invitrogen) supplemented with 10% foetal bovine serum (FBS) (Hyclone), 500 ug/mL Geneticin and 250 ug/mL zeocin (both invitrogen) in 5% CO2 at 37° C. Once confluent is cells cryopreserved by freezing at −186° C. in freezing solution (90% FBS 10% DMSO) (Sigma-Aldrich Co.). Twenty-four hours prior to testing cells resuscitated and freezing media removed via centrifugation, cells then seeded in a black walled clear bottom 384 well plates (Corning) at a density of 15,000 cells/well in Hams F12 media supplemented with 10% FBS. On the day of assay, growth media was removed and replaced with 63 μl of Calcium 5 dye solution (Molecular Devices) in assay buffer (HBSS, 20 mM HEPES, 0.1% BSA, 1 mM Probenecid pH7.4 (Sigma-Aldrich Co.)) per well (each vial of Calcium 5 resuspended in 27 mL of assay buffer). Cells were then incubated for 45 minutes at 37° C., 5% CO2. Compound was serially diluted in DMSO (log/half log) before being diluted 1:20 with assay buffer. 7 μl of compound diluted in assay buffer was then added to cells on FLiPR tetra and fluorescence intensity measured for 5 minutes. EC50 values for compounds were determined from ten point half log scale dose-response studies and represent the concentration of compound required to […] maximal response. Curves were generated using the average of duplicate wells for each data point and analyzed using non-linear regression of four parameter dose response. Percentage Relative efficacy (RE) to an EC100 concentration of acetylcholine was reported for all compounds. The results are set out in Table 3 below in which the term “No Response” means that there was no significant response of calcium flux in the assay indicative of agonism.

human M2 receptor = human M2 receptor (Homo sapiens (Human), UniProt P08172); test: In vitro M2 functional assay (intracellular calcium, FLiPR Tetra); format: cell-based; conditions: for M2 EC50 / EC50: CHOK1 cells stably expressing human M2 receptor and Gα16, calcium flux, No Response = no significant response of calcium flux indicative of agonism; for activation at 10 µM: response at 10 μM compound, relative to an EC100 concentration of acetylcholine, read-out: M2 % RE @ 10 μM
Method: as §1, §2, §3

human M2 receptor, sequence (P08172 whole entry): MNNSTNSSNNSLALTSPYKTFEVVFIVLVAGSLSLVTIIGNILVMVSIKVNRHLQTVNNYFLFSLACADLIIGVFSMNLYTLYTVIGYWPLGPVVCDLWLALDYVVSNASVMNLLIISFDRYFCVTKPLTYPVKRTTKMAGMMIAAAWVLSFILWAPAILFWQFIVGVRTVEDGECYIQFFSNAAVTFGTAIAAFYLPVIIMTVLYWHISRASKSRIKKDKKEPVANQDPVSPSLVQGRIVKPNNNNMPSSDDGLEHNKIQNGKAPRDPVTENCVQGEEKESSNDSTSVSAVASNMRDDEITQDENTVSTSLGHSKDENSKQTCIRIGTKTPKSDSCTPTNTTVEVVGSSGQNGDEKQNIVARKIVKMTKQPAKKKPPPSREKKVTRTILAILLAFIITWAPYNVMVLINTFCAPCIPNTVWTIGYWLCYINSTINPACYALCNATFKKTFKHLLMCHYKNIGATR
human M4 receptor, sequence (P08173 whole entry): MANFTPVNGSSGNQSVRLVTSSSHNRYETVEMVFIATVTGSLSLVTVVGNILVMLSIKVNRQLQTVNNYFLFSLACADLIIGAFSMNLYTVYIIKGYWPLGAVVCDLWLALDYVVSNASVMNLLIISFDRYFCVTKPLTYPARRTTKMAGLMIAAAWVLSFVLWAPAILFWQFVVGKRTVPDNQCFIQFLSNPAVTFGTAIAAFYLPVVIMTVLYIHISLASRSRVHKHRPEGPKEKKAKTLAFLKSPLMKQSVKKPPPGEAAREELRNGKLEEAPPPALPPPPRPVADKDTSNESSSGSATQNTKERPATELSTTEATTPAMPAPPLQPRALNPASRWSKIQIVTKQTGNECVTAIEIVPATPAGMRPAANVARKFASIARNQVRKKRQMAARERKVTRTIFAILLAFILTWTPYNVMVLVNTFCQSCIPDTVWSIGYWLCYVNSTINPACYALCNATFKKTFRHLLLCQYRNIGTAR

EC50 (human M4 receptor) [nM]	Emax (human M4 receptor) [%]	M2 EC50 (human M2 receptor)	EC50 (human M2 receptor) [nM]	activation at 10 µM (human M2 receptor) [%]	M2 % RE (human M2 receptor; relative efficacy to an EC100 concentration of acetylcholine) [%]	Structure (SMILES)
2350	24	No Response				CCOC(=O)N1CCCC(N2CCC(c3cccn(CC#N)c3=O)CC2)CC1 (stereo not drawn) [Example 56, Ethyl 4-{4-[1-(cyanomethyl)-2-oxo-1,2-dihydropyridin-3-yl]piperidin-1-yl}azepane-1-carboxylate]
890	37	No Response				CCOC(=O)N1CCCC(N2CCC(c3cccn(CC)c3=O)CC2)CC1 (stereo not drawn) [Example 57, Ethyl 4-[4-(1-ethyl-2-oxo-1,2-dihydropyridin-3-yl)piperidin-1-yl]azepane-1-carboxylate]
2	95	No Response				CCOC(=O)N1CCCC(N2CCC(c3cc(Cl)cnc3OC)CC2)CC1 (stereo not drawn) [Example 58, Ethyl 4-[4-(5-chloro-2-methoxypyridin-3-yl)piperidin-1-yl]azepane-1-carboxylate]
530	30	No Response				CCOC(=O)N1CCCC(N2CCC(c3nc(C)cnc3C)CC2)CC1 (stereo not drawn) [Example 59, Ethyl 4-[4-(3,6-dimethylpyrazin-2-yl)piperidin-1-yl]azepane-1-carboxylate]
180	68	No Response				CCOC(=O)N1CCCC(N2CCC(c3nc(C(F)(F)F)ncc3OC)CC2)CC1 (stereo not drawn) [Example 60, Ethyl 4-{4-[5-methoxy-2-(trifluoromethyl)pyrimidin-4-yl]piperidin-1-yl}azepane-1-carboxylate]
150	66	No Response				CCOC(=O)N1CCCC(N2CCC(c3cccnc3-c3cnn(C(C)C)c3)CC2)CC1 (stereo not drawn) [Example 61, Ethyl 4-(4-{2-[1-(propan-2-yl)-1H-pyrazol-4-yl]pyridin-3-yl}piperidin-1-yl)azepane-1-carboxylate]
360	53	No Response				CCOC(=O)N1CCCC(N2CCC(c3cccnc3NC)CC2)CC1 (stereo not drawn) [Example 62, Ethyl 4-{4-[2-(methylamino)pyridin-3-yl]piperidin-1-yl}azepane-1-carboxylate]
560	43	No Response				CCOC(=O)N1CCCC(N2CCC(c3nc(C)ncc3OC)CC2)CC1 (stereo not drawn) [Example 63, Ethyl 4-[4-(5-methoxy-2-methylpyrimidin-4-yl)piperidin-1-yl]azepane-1-carboxylate]
3140	35	No Response				CCOC(=O)N1CCCC(N2CCC(c3cccnc3-c3ccnn3C)CC2)CC1 (stereo not drawn) [Example 64, Ethyl 4-{4-[2-(1-methyl-1H-pyrazol-5-yl)pyridin-3-yl]piperidin-1-yl}azepane-1-carboxylate]
190	87	No Response				CCOC(=O)N1CCCC(N2CCC(c3cccnc3N(C)C)CC2)CC1 (stereo not drawn) [Example 65, Ethyl 4-{4-[2-(dimethylamino)pyridin-3-yl]piperidin-1-yl}azepane-1-carboxylate]
120	84	No Response				CCOC(=O)N1CCCC(N2CCC(c3cccnc3C3CC3)CC2)CC1 (stereo not drawn) [Example 66, Ethyl 4-[4-(2-cyclopropylpyridin-3-yl)piperidin-1-yl]azepane-1-carboxylate]
990	37	No Response				CCOC(=O)N1CCCC(N2CCC(c3cccnc3NCC3CC3)CC2)CC1 (stereo not drawn) [Example 67, Ethyl 4-(4-{2-[(cyclopropylmethyl)amino]pyridin-3-yl}piperidin-1-yl)azepane-1-carboxylate]
540	45	No Response				CCOC(=O)N1CCC(N2CCC(c3nccs3)CC2)CC1 [Example 68, Ethyl 4-[4-(1,3-thiazol-2-yl)piperidin-1-yl]piperidine-1-carboxylate]
630	63		> 10000	21		CCOC(=O)N1CCCC(N2CCC(n3nccc3C(F)(F)F)CC2)CC1 (stereo not drawn) [Example 69, Ethyl 4-{4-[5-(trifluoromethyl)-1H-pyrazol-1-yl]piperidin-1-yl}azepane-1-carboxylate]
210	64	No Response				CCOC(=O)N1CCCC(N2CCC(c3cccnc3CC)CC2)CC1 (stereo not drawn) [Example 70, Ethyl 4-[4-(2-ethylpyridin-3-yl)piperidin-1-yl]azepane-1-carboxylate]
1050	45	No Response				CCOC(=O)N1CCCC(N2CCC(c3nnccc3OC)CC2)CC1 (stereo not drawn) [Example 71, Ethyl 4-[4-(4-methoxypyridazin-3-yl)piperidin-1-yl]azepane-1-carboxylate]
270	63		2020		20	CCOC(=O)N1CCC(N2CCC(c3cccc(OCC)n3)CC2)CC1 [Example 72, Ethyl 4-[4-(6-ethoxypyridin-2-yl)piperidin-1-yl]piperidine-1-carboxylate]
650	53	No Response				CCOC(=O)N1CCCC(N2CCC(c3cccnc3-c3cnn(C)c3)CC2)CC1 (stereo not drawn) [Example 73, Ethyl 4-{4-[2-(1-methyl-1H-pyrazol-4-yl)pyridin-3-yl]piperidin-1-yl}azepane-1-carboxylate]
1050	61		> 10000	20		CCOC(=O)N1CCCC(N2CCC(c3ncccn3)CC2)CC1 (stereo not drawn) [Example 74, Ethyl 4-[4-(pyrimidin-2-yl)piperidin-1-yl]azepane-1-carboxylate]
1010	52	No Response				CCOC(=O)N1CCCC(N2CCC(c3cncnc3C)CC2)CC1 (stereo not drawn) [Example 75, Ethyl 4-[4-(4-methylpyrimidin-5-yl)piperidin-1-yl]azepane-1-carboxylate]
22	84	No Response				CCOC(=O)N1CCCC(N2CCC(c3cccnc3OCc3cscn3)CC2)CC1 (stereo not drawn) [Example 76, Ethyl 4-{4-[2-(1,3-thiazol-4-ylmethoxy)pyridin-3-yl]piperidin-1-yl}azepane-1-carboxylate]
670	58	No Response				CCOC(=O)N1CCCC(N2CCC(c3cccnc3CC(C)C)CC2)CC1 (stereo not drawn) [Example 77, Ethyl 4-{4-[2-(2-methylpropyl)pyridin-3-yl]piperidin-1-yl}azepane-1-carboxylate]
2680	36	No Response				COC(=O)N1CCC(CN2CCC(n3nc(C)cc3C)C2)CC1 (stereo not drawn) [Example 78, Methyl 4-{[3-(3,5-dimethyl-1H-pyrazol-1-yl)pyrrolidin-1-yl]methyl}piperidine-1-carboxylate]
340	50	No Response				CCOC(=O)N1CCC(CN2CCC(n3nc(C)cc3C)C2)CC1 (stereo not drawn) [Example 79, Ethyl 4-{[3-(3,5-dimethyl-1H-pyrazol-1-yl)pyrrolidin-1-yl]methyl}piperidine-1-carboxylate]
850	43	No Response				CCOC(=O)N1CCCC(N2CCC(c3cccnc3-c3ncco3)CC2)CC1 (stereo not drawn) [Example 80, Ethyl 4-{4-[2-(1,3-oxazol-2-yl)pyridin-3-yl]piperidin-1-yl}azepane-1-carboxylate]
85	83	No response				CCOC(=O)N1CCC[C@H](N2CCC(n3cccn3)CC2)CC1 [Example 81, Ethyl (4S)-4-[4-(1H-pyrazol-1-yl)piperidin-1-yl]azepane-1-carboxylate]
1500	55	No response				CCOC(=O)N1CCC[C@H](N2CCC(c3nccn3C)CC2)CC1 [Example 83, Ethyl (4S)-4-[4-(1-methyl-1H-imidazol-2-yl)piperidin-1-yl]azepane-1-carboxylate]
26	91	No response				CCOC(=O)N1CCC[C@H](N2CCC(c3cccnc3OC)CC2)CC1 [Example 85, Ethyl (4S)-4-[4-(2-methoxypyridin-3-yl)piperidin-1-yl]azepane-1-carboxylate]
